Laboratory results reported in BindingDB's records for doi:10.1021/jm9708341 (University of Leipzig, 1998).

Molecular target: T1, Neutrophil elastase (Homo sapiens, UniProt P08246)
T1 sequence (P08246 whole entry): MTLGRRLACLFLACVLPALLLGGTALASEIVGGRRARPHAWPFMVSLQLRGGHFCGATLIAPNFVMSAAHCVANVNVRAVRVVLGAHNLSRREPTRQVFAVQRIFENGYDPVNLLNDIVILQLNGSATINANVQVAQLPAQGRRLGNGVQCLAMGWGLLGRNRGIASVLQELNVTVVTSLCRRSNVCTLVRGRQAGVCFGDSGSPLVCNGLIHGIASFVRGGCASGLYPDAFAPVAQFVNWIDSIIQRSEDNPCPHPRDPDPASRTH
Assay: Steady state inhibition constant for Human Leukocyte Elastase inhibition
Settings: for kon: read-out: kon (M-1-s-1)

| koff [s⁻¹] | kon [M⁻¹ s⁻¹] | SMILES |
| --- | --- | --- |
| 8.5e-05 | 1130 | Cc1sc2nc(NC(C)C)oc(=O)c2c1C [2-Isopropylamino-5,6-dimethyl-thieno[2,3-d][1,3]oxazin-4-one] |
| 0.00156 | 272000 | CSc1nc2sc3c(c2c(=O)o1)CCCC3 [2-Methylsulfanyl-5,6,7,8-tetrahydro-benzo[4,5]thieno[2,3-d][1,3]oxazin-4-one] |
| 0.000163 | 685 | COC(=O)CSc1nc2sc(C)c(C)c2c(=O)o1 [(5,6-Dimethyl-4-oxo-4H-thieno[2,3-d][1,3]oxazin-2-ylsulfanyl)-acetic acid methyl ester] |
